A melting point compilation (Tetko et al.; mined from patent text by program, amines drawn as free bases though some values may be those of a salt)

| Structure (SMILES) | melting point [°C] |
| --- | --- |
| CCOC(=O)C(C)NC(=O)c1cc(C)on1 (configuration not stated) | 65 to 66 |
| O=C(CS(=O)Cc1cccs1)C12CC3CC(CC(C3)C1)C2 (configuration not stated) | 95 to 98 |
| CCOC(=O)c1c(CCCCn2ccnc2)nc2cc(OC)c(OC)cc2c1-c1ccc(OC)c(OC)c1 | 119 to 120 |
| C[C@H](NC(=O)OC(C)(C)C)C(=O)ON1C(=O)CCC1=O | 164 |
| CN(C)C1CC2=CNC=C3C=C(C(N)=O)OCC1=C32 (configuration not stated) | 182 to 183 |
| Cc1cnc(N2CCN(c3ccc([N+](=O)[O-])cc3)CC2)n1C | 204 to 205 |
| Cc1ccccc1C(c1c[nH]cn1)c1ccccc1C | 228 to 231 |
| CCCCc1cccc(NC(=O)C=C(C)OC)c1 | 36 |
| Nc1nc(N)c(CCCCc2csc(OC(=O)N[C@@H](CCC(=O)O)C(=O)O)c2)c(O)n1 | 235 to 236 |
| CCCCCCCCCCC(=O)NCCCCCCCCCCCC(=O)O | 102 to 104 |
| COC1CCN(C2CCN(c3ccc(N)cc3C#N)CC2)CC1 | 125 to 130 |
| COc1cc(C=CC(=O)OC2C(O)C=C(C)C(=O)CC2(C)C)ccc1O (configuration not stated) | 125 to 127 |
| COc1ccccc1N1CCN(CCn2c(=O)c3sccc3n(C)c2=O)CC1 | 149 to 151 |
| Oc1cc(O)cc(Oc2nnn[nH]2)c1 | 191 to 193 |
| CC(C)Cn1c(=O)n(C)c(=O)c2c(Sc3nccs3)c(C(=O)c3ccnc4ccccc34)sc21 | 167 to 168 |
| O=C(O)C1(CCCCCCCCCCCCC2(C(=O)NCCO)CC2)CC1 | 81.1 to 83.8 |
| COc1cc(OC(=O)C(C)C)c2c(=O)c(OC)c(-c3ccc(OC(=O)C(C)(C)C)c(OC)c3)oc2c1 | 151 to 152 |
| CC(CCCn1cc(CCO)c(=O)[nH]c1=O)C(=O)O (configuration not stated) | 105 |
| C=CCN1CC(=O)N(c2c(C)cccc2C)C1=S | 43 to 46 |
| O=Cc1cc2c(cc1[N+](=O)[O-])OC(F)(F)O2 | 36 to 38 |
| CCCCCCCNC(=O)c1ccc(CCCC)cc1 | 37 to 38 |
| Cc1c(OCCCCCCC(=O)N(CCO)C2CCCCC2)ccc2c1CN1CC(=O)NC1=N2 | 148 to 150 |
| OCC1OC(n2cnc3c(NCCc4csc5ccccc45)ncnc32)C(O)C1O (configuration not stated) | 173 to 174 |
| CC1CC2C3CCC4=CC(=O)C=CC4(C)C3=CCC2(C)C1C(=O)CN1CCN(c2cc(NC(C)(C)C)nc(NC(C)(C)C)n2)CC1 (configuration not stated) | 145 to 155 |

| Structure (SMILES) | melting point [°C] |
| --- | --- |
| O=C(C=C(Cl)Cl)c1cc(F)c(Cl)cc1Cl | 64 to 65 |
| CCOC(=O)COc1ccc(C23CC4CC(CC(C4)C2)C3)cc1 | 89 to 90 |
| C=C1c2c(C)c(OCc3ccccc3)c(C)c(C)c2OC1(C)C | 55 to 57 |
| Cc1cc(C)c2nc3n(c(=O)c2c1)-c1ccc(F)cc1C3=O | 275 to 277 |
| O=C(O)CCCCCc1nn(-c2ccccc2)c2c1CCC2 | 95 to 96 |
| CCCCCCCCCCCCOc1cc(CC#N)c(SC)cc1CC#N | 100 to 102 |
| CCc1nc2ccc(N=C=S)cc2s1 | 69 to 73 |
| CCCCCC(C)C(C)c1cc(O)c2c(c1)OC(C)(C)C1=C2CN(CC(=O)NC(=O)Nc2ccccc2)CC1 (configuration not stated) | 159 to 161 |
| CCCCCC(CC(=O)O)c1cc(C(=O)OC)c(OC)cc1OC (configuration not stated) | 106 to 107 |
| CC(CO)CCCC(C)C1CC=C2C3=C(CCC21C)C1(C)CCC(O)C(C)(C)C1CC3 (configuration not stated) | 180 to 181 |
| CC(C)Cn1c(=O)n(C)c(=O)c2c(Sc3ccc([N+](=O)[O-])cn3)c(Cc3cccc4ccccc34)sc21 | 200 to 201 |
| CC(C)Cn1c(=O)n(C)c(=O)c2c(Sc3cccs3)c(C(=O)c3cccnc3)sc21 | 111 to 115 |
| COc1cc(C)c2ccc(Br)cc2n1 | 58 to 60 |
| CCS(=O)c1nc(-c2ccc(OC)cc2)c(-c2ccc(OC)cc2)[nH]1 (configuration not stated) | 161 to 162 |
| CC(C(=O)O)C1CCCCC1 (configuration not stated) | 63 to 64 |
| COC(=O)CNc1cccc(I)c1 | 83 |
| CC(C)Oc1cccc(NC(=O)OC(C)(C)C)c1 | 79 to 81 |
| Cc1nc(C)c(C(C)(O)c2ccccn2)s1 (configuration not stated) | 104 to 105 |
| Nc1ccccc1C(=O)OCN1C(=O)c2ccccc2C1=O | 160 to 162 |
| COC(=O)c1ccccc1N(C)C(=O)CBr | 80 to 82 |
| O=C1c2cnc(N3CCN(Cc4ccccc4)CC3)nc2CN1C1CCCCC1 | 176 to 178 |
| COc1cc2cc(C(N)=O)sc2cc1OC | 211 to 213 |
| CN(C)CCSc1ncccc1C(O)c1ccccc1 (configuration not stated) | 88 to 89 |

Other lines, results leading:

| melting point [°C] | Structure (SMILES) |
| --- | --- |
| 68 to 71 | CCCSc1nc(C)c(CC(=O)O)n1-c1ccccc1Cl |
| 312 to 314 | COc1ccc(-c2c(O)c3ccc(Cl)cc3[nH]c2=O)cc1OC |
| 43 to 46 | Cc1cc(Oc2ccccc2)ccc1[N+](=O)[O-] |
| 200 | CNC(=O)c1cccc(F)c1Nc1nc(Nc2ccc3c(c2)C(=O)NCCC3)ncc1Cl |
| 134 to 135 | COc1ccc(C2=NN(c3ccccc3)C(=O)[C@H]3CC=CC[C@@H]23)cc1OC (relative stereo) |
| 284 to 286 | CC(=O)Oc1cccc(-c2cc(-c3ccncc3)c(C#N)c(=O)[nH]2)c1 |
| 146 | COC(=O)CCc1cc2nc(Cl)ccc2n1S(=O)(=O)c1ccc2ncsc2c1 |
| 229 to 230 | CC(C)(C)c1ccc(C(=O)Nc2cn3c(CO)cccc3n2)cc1 |
| 213 to 214 | CSc1ccc(C2=NNC(=O)CC2c2ccccc2)cc1 (configuration not stated) |
| 87 | FC(F)(F)c1ccc(-c2nc(Br)cc(Br)n2)cc1 |
| 205 to 206 | COc1ccc(-c2cc(-c3nccs3)c(=O)n(C)c2-c2ccc(C)o2)cc1 |
| 146 to 147 | Cc1oc(-c2ccccc2)nc1COc1ccc(CCC2SC(=O)NC2=O)cc1 (configuration not stated) |
| 158 to 160 | Cc1cc(F)ccc1C1(c2ccc(S(C)(=O)=O)cc2C)CSC=C1c1ccc(S(C)(=O)=O)cc1 (configuration not stated) |
| > 360 | Cc1ccc2nc3[nH]c(=O)[nH]c3cc2c1Cl |
| 182 | CCOC(=O)NC(C)Cn1cc(-c2ccccc2)c2ccccc2c1=O (configuration not stated) |
| 166 to 168 | CCOc1cc(C2COCCC2NC(=O)c2ccc(C(=O)N(C(C)C)C(C)C)cc2)ccc1OC (configuration not stated) |
| 178 to 180 | Cc1cc(C2(C3CC3)CC(c3ccc(Cl)cc3)=NO2)ccc1NC(=O)c1cccc(I)c1C(=O)NC(C)C (configuration not stated) |
| 254 to 255 | O=C(Nc1cc(Cl)cc(Cl)c1)c1cc2ccccc2cc1O |
| 126 to 127 | N#CCOc1ccc2cc(Br)ccc2c1Cl |
| 266 to 267 | Oc1cc(-c2ccccc2)ncn1 |
| 220 to 222 | Cc1oc(-c2ccccc2)nc1CCOc1ccc(C[C@@H](C(=O)O)N2CCN(c3ccccc3)CC2)cc1Br |
| 258 to 260 | Nc1nc(Nc2ccc(S(N)(=O)=O)cc2)sc1C(=O)c1c(F)cccc1F |
| 348 to 349 | O=C(O)c1ccc(C=Cc2ccc(-c3cc4ccccc4o3)cc2)cc1 |
| 189 to 195 | Nc1nc2ccccc2c2c1nc1n2C(COc2ccccc2)COC1 (configuration not stated) |
| 165 to 166 | O=c1oc2ccc(-c3ccc(F)cc3F)cc2c(=O)n1-c1cccc(C(F)(F)F)c1 |
| 222 to 224 | Cc1cccc(-c2c(Cl)ccc3c2C=C(C(=O)O)C(C(F)(F)F)O3)c1 (configuration not stated) |
| 271 | COc1ccc(-c2cc(-c3nc(C)cs3)c(=O)n(C)c2-c2ccnnc2)cc1 |
| 213 to 216 | Cc1cc(C)n(-c2nc(Nc3ccc4ccccc4c3)c3ccccc3n2)n1 |

| melting point [°C] | Structure (SMILES) |
| --- | --- |
| 253 to 254 | CCOC(=O)c1cn(C)c2cc(-n3cccc3)c(F)cc2c1=O |
| 182 to 184 | CS(=O)(=O)c1ccc(-c2cnn(Cc3ccccn3)c(=O)c2-c2ccc(F)cc2)cc1 |
| 97 to 102 | COc1cccc(Cc2cc(Br)ccc2O)c1 |
| 125 | CCCCCOc1cc(C(=O)O)ccc1OC |
| 226 to 227 | CNC(C)=Nc1ccc(-c2c[nH]cn2)cc1 |
| 205 to 207 | Cc1c(-c2ccccc2Cl)n(-c2ccccc2Cl)c(-c2ccccc2Cl)cc1=O |
| 57 to 59 | CCOC(=O)c1ccc(-c2ccc(C=O)cc2)cc1 |
| 235 to 236 | O=C(c1cc(C(F)(F)F)cc(C(F)(F)F)c1)N1CCC2(CC1)C(=O)NCN2c1cccc(Cl)c1 |
| 139 to 140 | CN1CCc2ccc(C(=O)CCC(=O)N3CCC(c4ccc(Cl)cc4)CC3)cc2C1 |
| 164 to 165 | COc1cc(N)c(Cl)cc1C(=O)NCCN(C)C1CC1 |
| 152 to 154 | CNc1nnnn1-c1ccccc1C(=O)O |
| 245 to 248 | CN(C(=O)C(F)(F)F)C1Cc2ccc(C(=O)Cn3cnc4cc(-c5ccc(Cl)cc5)sc4c3=O)cc2C1 (configuration not stated) |
| 168 to 169 | CCc1ccc2c(c1)OC1(O)c3ccccc3C(=O)C21O (configuration not stated) |
| 232 | Cc1cccc(-c2sc(N)nc2-c2ccnc(-c3ccc(OC(F)(F)F)cc3)c2)n1 |
| 205 | Cn1cncc1C(O)(c1ccc(Cl)cc1)c1ccc2nc(C=O)cc(-c3cccc(Cl)c3)c2c1 (configuration not stated) |
| 220 | Nc1ccc(CCC(=O)Nc2cnc3ccccc3c2)cc1[N+](=O)[O-] |
| 134 to 135 | CS(=O)(=O)c1ccc(-c2sc(-c3ccccc3Cl)nc2-c2cccc(F)c2)cc1 |
| 192 to 193 | COc1ccc(Cl)c2c1C(=O)OC2=O |
| 144 to 147 | CC(c1ccc(-c2ccccc2Cl)cc1)S(=O)CC(=O)O (configuration not stated) |
| 286 to 288 | O=C(Nc1ccc2[nH]c(=O)[nH]c2c1)C(=O)N1CCC(Oc2ccc(Cl)cc2)CC1 |
| 196 to 198 | O=C(O)c1ccc(C#Cc2ccccc2F)o1 |
| 204 to 205 | CN1CCC(=C2c3ccccc3C(CO)=C(CO)c3ccccc32)CC1 |
| 166 to 168 | Cc1ccnc(-n2cc(C#N)ccc2=O)c1 |
| 127 to 128 | CN(C)C(=N)c1c(Cl)cc(N=Cc2ccc(N(C)C)cc2F)cc1Cl |
| 70 to 71 | CN[C@@H]1COc2cc(Cl)ccc2O1 |
| 188 to 189 | CCn1c(-c2ccc(Cl)cc2)n[nH]c1=O |
| 81 to 82 | COc1cccc(Oc2cccnc2C(=O)NCCNC(=O)OC(C)(C)C)c1 |
